Source: patent US20240350643A1, “PROTEIN DEGRADATION AGENT” (SUZHOU KINTOR PHARMACEUTICALS, INC., priority 2021, published 2024)

Legend:
c-Myc protein = molecular target: T1, c-Myc protein (Homo sapiens, UniProt P01106); assay: Ability of compounds to degrade c-Myc protein in HL60 cells (ELISA); format: cell-based; details: HL-60, 1 μM compound, 24 h, read-out: HL60 cells Protein degradation rate (1 μM)
T1 construct: endogenous in cells; host or cells: HL60 cells
Experimental: I Activity test 1: Ability of compounds to degrade c-Myc protein in HL60 cells:
HL60 cells in the exponential growth phase were centrifuged, diluted with fresh culture mediums to 6×10^4 cells/100 μL and plated into a 96-well plate at 100 μL per well.
Preparation of test compounds: the compounds were weighed and diluted with DMSO to a 10 mM stock solution for later use. According to test requirements, drugs were diluted with cell culture mediums, with ten-fold dilutions starting from 10 μM, to achieve 3 concentration gradients: 10 μM, 1 μM and 100 NM; and finally, 1 μL of the drugs (DMSO content: 0.01%) were added to each well. For the blank control group, DMSO was also diluted with cell culture mediums, and finally, 1 μL of the control reagent (DMSO content: 0.01%) was added to each well.
3. Effect of drugs on c-Myc in cells as determined by ELISA
After 24 h of drug action, the culture mediums were removed, and the cells were washed once with ice-cold 1× PBS. PBS was removed, and 100 μL of ice-cold 1× Cell Lysis Buffer plus 1 mM phenylmethylsulfonyl fluoride (PMSF) was added to each well. The plate was incubated on ice for 20 min and centrifuged at 4000 RPM at 4° C. for 10 min for later use.
4. Reagent and antibody preparation in ELISA kit 1× wash buffer • 1). 16 mL of ELISA wash buffer concentrate (25×) was diluted with 384 mL of deionized water or distilled water, labeled as 1× Wash Buffer. • 2). The concentrate and 1× Wash Buffer were stored in the refrigerator. The diluted buffer was used within 14 days.
The cell extraction buffer contains 10 mM Tris (pH 7.4), 100 mM NaCl, 1 mM EDTA, 1 mM EGTA, 1 mM NaF, 20 mM Na4P2O7 2 mM Na3VO4. 1% Triton™ ×-100, 10% glycerol, 0.1% SDS and 0.5% deoxycholate. Immediately before use, PMSF (0.3 M stock solution in DMSO) was added to the buffer to a final concentration of 1 mM.
Standard curve configuration: The standard liquid was diluted using glass or plastic tubes. • 1). Huc-Myc (total) standard liquid (Invitrogen, KH02041) was reconstituted with a standard dilution to 1000 pg/mL. Refer to the standard vial label for instructions. The contents were gently swirled or mixed and then allowed to stand for 10 minutes to ensure complete reconstitution, labeled as 1,000 pg/mL human c-Myc. The standard liquid was used within 1 hour after reconstitution. • 2). 250 μL of standard dilution buffers were added to 7 test tubes respectively labeled 500, 250, 125, 62.5, 31.25, 15,63 and 0 pg/mL. • 3). 250 μL of the 1000 pg/ml standard stock solution was added to the first EP tube to a concentration of 500 pg/mL, vortexed and mixed evenly. 250 μL of the resulting mixture was further pipetted and added to the second EP tube to a concentration of 250 pg/mL. Serial dilutions were performed until the sixth EP tube with a concentration of 15.63 pg/mL. Dilution was not performed on the last EP tube. • 4). The remaining reconstituted standard liquid should be discarded, or aliquoted and frozen at −80° C. for further use. Standards can be frozen and thawed only once without losing immunoreactivity.
1× anti-rabbit IgG HRP solution: 1× anti-rabbit IgG HRP solution was prepared within 15 minutes of use. The anti-rabbit IgG HRP (100×) contained 50% viscous glycerol. To ensure accurate dilutions, the following operations were carried out: 1 For each 8-well test strip used in the test, 10 μl, of the anti-rabbit IgG -IRP (100×) solution was pipetted, wherein the pipette tip was wiped with clean absorbent paper to remove excess solutions, and then the solution was dispensed into a test tube containing 1 mL of HRP diluent and mixed thoroughly. 2. The unused anti-rabbit IgG HRP (100×) was placed in the refrigerator for storage.
50 μL of the standard liquid was added to the appropriate wells and not added to the blank control well. Except for the blank control well, 50 μL of Hu c-Myc (total) detection antibody solution was added to each well and mixed by tapping the side face of the plate. […]

HL60 cells = assay: Anti-proliferation ability of compounds on HL60 cells (CTG); format: cell-based, human; details: Homo sapiens, HL-60, 72 h, 3 days, CellTiter-Glo, read-out: HL60 cells Proliferation inhibitory activity
Experimental: II. Activity test 2: Anti-proliferation ability of compounds on HL60 cells: 1 Cell plating
HL60 cells in the logarithmic growth phase were counted and plated evenly in a 96-well transparent bottom white plate at 20000 cells per well and 100 μL per well.
A certain amount of the compounds was weighed and diluted with DMSO to a 10 mM stock solution. The culture mediums corresponding to the cells were taken, and the drugs were diluted to the concentration required by the test, shaken gently and mixed evenly. 50 μl of the gradient dilution of the diluted compound was added to each well of the plated cells, and 50 μL of 0.1% DMSO was added to the control group. The plate was shaken gently, mixed evenly and incubated in a cell culture incubator for 3 days.
• 3.1 The CellTiter-GLo™ (CTG) reagent was taken in advance from the −20° C. refrigerator and equilibrated to room temperature in the dark (white bottle+brown bottle, 1:1 mixing evenly into the brown bottle, for later use). • 3.2 The 96-well plate was taken out and inspected under a microscope for growth situation. • 3.3 The bottom of the 96-well plate was tagged with white paper, and then the plate was wrapped with tin foil paper, shaken at 37° C. at 300 r for 10 min and mixed evenly. • 3.4 50 ul of CTG detection reagent was added to each well, Luminescence signal was detected using a microplate reader, and the inhibition rate was calculated. IC50 values of the compounds were calculated by XLfit software to evaluate the proliferation inhibitory activity on HL60 cells.

T1 sequence (P01106 whole entry): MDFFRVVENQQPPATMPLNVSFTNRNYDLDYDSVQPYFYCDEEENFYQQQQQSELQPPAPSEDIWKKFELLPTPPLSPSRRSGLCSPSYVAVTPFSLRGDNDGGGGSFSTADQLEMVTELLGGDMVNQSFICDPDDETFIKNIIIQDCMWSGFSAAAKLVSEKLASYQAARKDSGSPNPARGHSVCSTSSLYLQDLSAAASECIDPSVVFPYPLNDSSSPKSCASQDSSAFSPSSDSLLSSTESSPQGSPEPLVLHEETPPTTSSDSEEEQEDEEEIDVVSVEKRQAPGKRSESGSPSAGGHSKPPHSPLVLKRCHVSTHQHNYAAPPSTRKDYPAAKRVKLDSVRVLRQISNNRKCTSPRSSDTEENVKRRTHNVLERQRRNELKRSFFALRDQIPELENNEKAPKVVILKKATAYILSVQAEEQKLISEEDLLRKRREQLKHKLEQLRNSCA

SMILES	inhibition at 1 µM (c-Myc protein) [%]	IC50 (HL60 cells) [nM]
CN(CCc1cccc(Cl)c1Cl)Cc1ccc(CNC(=O)c2ccc3c(c2)C(=O)N(C2CCC(=O)NC2=O)C3=O)cc1 (centres unmarked) [A99]	60 to 90	19.8 ± 4.8
O=C1CCC(N2C(=O)c3ccc(C(=O)NCc4ccc(CN(CCn5c6ccccc6c6cccnc65)C5CC5)cc4)cc3C2=O)C(=O)N1 (centres unmarked) [A89]	60 to 90	81.1 ± 36.9
O=C(Cn1c2ccccc2c2cccnc21)NCc1ccc(C2(NC(=O)c3ccc4c(c3)C(=O)N(C3CCC(=O)NC3=O)C4=O)CC2)cc1 (centres unmarked) [A138]	60 to 90	12.4 ± 4.4
CN(CCn1c2ccccc2c2cccnc21)Cc1ccc(CNC(=O)c2ccc3c(c2)C(=O)N(C2CCC(=O)NC2=O)C3=O)cc1C(F)(F)F (centres unmarked) [A123]	60 to 90	35.2 ± 9.3
O=C(Cn1c2ccccc2c2cccnc21)NCc1ncc(CNC(=O)c2ccc3c(c2)C(=O)N(C2CCC(=O)NC2=O)C3=O)cn1 (centres unmarked) [A132]	10 to 30	4210 ± 659
O=C1CCC(N2C(=O)c3ccc(C(=O)NC[C@H]4CC[C@H](CNC(=O)Nc5cccc6cnccc56)CC4)cc3C2=O)C(=O)N1 (some centres unmarked) [A49]	60 to 90	6820 ± 1630
O=C1CCC(N2C(=O)c3ccc(C(=O)NCCCCCCNC(=O)NC4c5ccccc5-c5ccccc54)cc3C2=O)C(=O)N1 (centres unmarked) [A10]	10 to 30	1213 ± 4
O=C(Cc1cccc(Cl)c1)NCc1ccc(CNC(=O)c2ccc3c(c2)C(=O)N(C2CCC(=O)NC2=O)C3=O)cc1 (centres unmarked) [A58]	60 to 90	285 ± 10.7
CC(C)(C)OC(=O)NC[C@H]1CC[C@H](CNC(=O)c2ccc3c(c2)C(=O)N(C2CCC(=O)NC2=O)C3=O)CC1 (some centres unmarked) [A26]	30 to 60	2820 ± 1060
O=C1CCC(N2C(=O)c3ccc(C(=O)NCc4ccc(CN(CCc5cccc6ccccc56)Cc5ccccc5)cc4)cc3C2=O)C(=O)N1 (centres unmarked) [A96]	60 to 90	960 ± 121
COc1ccccc1CC(=O)NCc1ccc(CNC(=O)c2ccc3c(c2)C(=O)N(C2CCC(=O)NC2=O)C3=O)cc1 (centres unmarked) [A54]	60 to 90	2330 ± 518
O=C(CC1c2ccccc2-c2ccccc21)NCCCCCCNC(=O)c1ccc2c(c1)C(=O)N(C1CCC(=O)NC1=O)C2=O (centres unmarked) [A11]	10 to 30	1240 ± 490
O=C(Cn1c2ccccc2c2ccccc21)NCCCCCCNC(=O)c1ccc2c(c1)C(=O)N(C1CCC(=O)NC1=O)C2=O (centres unmarked) [A1]	30 to 60	335 ± 83.1
CC(C)(NC(=O)c1ccc2c(c1)C(=O)N(C1CCC(=O)NC1=O)C2=O)c1ccc(CNC(=O)Cc2cccc3ccccc23)cc1 (centres unmarked) [A145]	60 to 90	117.7 ± 1.1
O=C(CN(c1ccccc1)c1ccccc1)NCCCCCCNC(=O)c1ccc2c(c1)C(=O)N(C1CCC(=O)NC1=O)C2=O (centres unmarked) [A5]	30 to 60	391 ± 4.7
CN(CCn1c2ccccc2c2cccnc21)C(C)(C)c1ccc(CNC(=O)c2ccc3c(c2)C(=O)N(C2CCC(=O)NC2=O)C3=O)cc1 (centres unmarked) [A151]	60 to 90	11.3 ± 4.7
O=C1CCC(N2C(=O)c3ccc(C(=O)NC[C@H]4CC[C@H](CNC(=O)Nc5cccc6ncccc56)CC4)cc3C2=O)C(=O)N1 (some centres unmarked) [A50]	10 to 30	10400 ± 235
CC(C)N(CCc1cccc(Cl)c1Cl)Cc1ccc(CNC(=O)c2ccc3c(c2)C(=O)N(C2CCC(=O)NC2=O)C3=O)cc1 (centres unmarked) [A87]	60 to 90	11.5
O=C(Cn1c2ccccc2c2cccnc21)NCCCCCCCCNc1ccc2c(c1)C(=O)N(C1CCC(=O)NC1=O)C2=O (centres unmarked) [A16]	60 to 90	21.2 ± 6.1
N#Cc1ccccc1CC(=O)NCc1ccc(CNC(=O)c2ccc3c(c2)C(=O)N(C2CCC(=O)NC2=O)C3=O)cc1 (centres unmarked) [A66]	60 to 90	1850 ± 1230
O=C(Cc1cccc2ccccc12)NCc1cccc(CNC(=O)c2ccc3c(c2)C(=O)N(C2CCC(=O)NC2=O)C3=O)c1 (centres unmarked) [A37]	30 to 60	314
O=C(Cc1cccc2cccnc12)NCc1ccc(CNC(=O)c2ccc3c(c2)C(=O)N(C2CCC(=O)NC2=O)C3=O)cc1 (centres unmarked) [A34]	60 to 90	18 ± 6
O=C(CCn1c2ccccc2c2ccccc21)NCCCCCCNC(=O)c1ccc2c(c1)C(=O)N(C1CCC(=O)NC1=O)C2=O (centres unmarked) [A13]	10 to 30	1270 ± 51

These reach a lower IC50 (HL60 cells). Values come first.

inhibition at 1 µM (c-Myc protein) [%]	IC50 (HL60 cells) [nM]	SMILES
60 to 90	7.2 ± 1	CC(C)(NC(=O)Cn1c2ccccc2c2cccnc21)c1ccc(CNC(=O)c2ccc3c(c2)C(=O)N(C2CCC(=O)NC2=O)C3=O)cc1 (centres unmarked) [A150]
60 to 90	< 3	CC(C)C(=O)N(CCc1cccc2ccccc12)Cc1ccc(CNC(=O)c2ccc3c(c2)C(=O)N(C2CCC(=O)NC2=O)C3=O)cc1 (centres unmarked) [A80]
60 to 90	3.3 ± 0.6	O=C1CCC(N2Cc3cc(NC(=O)C[C@H]4CC[C@H](NC(=O)NCc5cccc6ccccc56)CC4)ccc3C2=O)C(=O)N1 (some centres unmarked) [A199]
60 to 90	< 3	CN(CCc1ccc(Cl)cc1Cl)Cc1ccc(CC(=O)Nc2ccc3c(c2)CN(C2CCC(=O)NC2=O)C3=O)c(F)c1 (centres unmarked) [A174]
60 to 90	7.5 ± 1.1	CN(CCc1ccc(Cl)cc1Cl)Cc1ccc(CNCc2ccc3c(c2)C(=O)N(C2CCC(=O)NC2=O)C3=O)cc1 (centres unmarked) [A185]
60 to 90	< 3	CC(=O)N(CCn1c2ccccc2c2cccnc21)Cc1ccc(CNC(=O)c2ccc3c(c2)C(=O)N(C2CCC(=O)NC2=O)C3=O)cc1 (centres unmarked) [A82]
60 to 90	2.6 ± 0.7	CN(CCn1c2ccccc2c2cccnc21)Cc1ccc(CC(=O)Nc2ccc3c(c2)C(=O)N(C2CCC(=O)NC2=O)C3=O)cc1 (centres unmarked) [A168]
60 to 90	2.4 ± 0.3	O=C1CCC(N2Cc3cc(C(=O)NCc4ccc(C5(NC(=O)Cn6c7ccccc7c7cccnc76)CC5)cc4F)ccc3C2=O)C(=O)N1 (centres unmarked) [A164]
60 to 90	4.2	CN(CCn1c2ccccc2c2cccnc21)Cc1ccc(CNC(=O)c2ccc3c(c2)C(=O)N(C2CCC(=O)NC2=O)C3=O)c(F)c1 (centres unmarked) [A106]
60 to 90	5.8 ± 2.5	O=C(Cc1cccc2ccccc12)NCc1ccc(CNC(=O)c2ccc3c(c2)C(=O)N(C2CCC(=O)NC2=O)C3=O)c(F)c1 (centres unmarked) [A103]
60 to 90	4 ± 1.7	CN(CCc1ccc(Cl)c(Cl)c1)Cc1ccc(CC(=O)Nc2ccc3c(c2)C(=O)N(C2CCC(=O)NC2=O)C3=O)cc1 (centres unmarked) [A170]
